For 31 compounds, AC40 results are on record in PubChem BioAssay AID651773 (Broad Institute, 2012).

This test deals with SK-MEL-5 MITF mRNA qPCR, delta-delta-Ct, overnight. In words: inhibitors of MITF mRNA expression, dose response, cell-based, RT-qPCR, SK-MEL-5, dry powder (AID 651773).

Structures are written as SMILES. Several values for one entry are separate records, joined by “and”; a condition that tells them apart may be missing. Identical values can stand only once. Results filed as inconclusive are left out.

Regarding `O=C1C(Nc2ccccc2)=C(c2ccccc2)C(=O)c2ccccc21`, the AC40 is 5040 nM. With `O=C1C=C(NS(=O)(=O)c2cccs2)C(=O)c2ccccc21` the figure was 542 nM. The result for `NS(=O)(=O)c1ccc(NC2=CC(=O)c3ccccc3C2=O)cc1` reads 115 nM; that for `CC(C)N1CCN(C2=C(Nc3ccc(F)cc3)C(=O)c3ccccc3C2=O)CC1`, 5510 nM. For `NC1=C(NC(=O)c2ccccc2)C(=O)c2ccccc2C1=O`, the AC40 was 357 nM. The result for `COC1=C(NS(=O)(=O)c2ccc(Br)cc2)C(=O)c2ccccc2C1=O` reads 6510 nM; that for `O=C1C(Nc2ccc(Br)cc2)=C(N2CCCCC2)C(=O)c2ccccc21`, 9490 nM. With `NC1=C(NS(=O)(=O)c2ccccc2)C(=O)c2ccccc2C1=O` the figure was 2760 nM. The result for `O=C1C=C(NS(=O)(=O)c2ccccc2)C(=O)c2ccccc21` reads 196 nM; that for `COC1=C(NS(=O)(=O)c2cccs2)C(=O)c2ccccc2C1=O`, 7800 nM. Turning to `C=CCNC1=C(Cl)C(=O)c2ccccc2C1=O`, the AC40 is 276 nM.

For `CCN1CCN(C2=C(NS(=O)(=O)c3ccc(Br)cc3)C(=O)c3ccccc3C2=O)CC1`, the AC40 is 3650 nM.

Consider `NC1=C(NS(=O)(=O)c2cccs2)C(=O)c2ccccc2C1=O`, for which the AC40 is 1550 nM. With `CC(C)N1CCN(C2=C(Nc3ccc(F)cc3F)C(=O)c3ccccc3C2=O)CC1` the figure was 1590 nM; with `O=C1C=C(NS(=O)(=O)c2ccc(Br)cc2)C(=O)c2ccccc21`, 631 nM; with `O=C(NC1=C(Cl)C(=O)c2ccccc2C1=O)c1ccccc1`, 179 nM. The result for `NC1=C(NS(=O)(=O)c2ccc(Br)cc2)C(=O)c2ccccc2C1=O` reads 4920 nM.

With `COC1=C(Nc2ccccc2)C(=O)c2ccccc2C1=O`, the AC40 is 386 nM. The result for `Cc1ccc(NC2=CC(=O)c3ccccc3C2=O)cc1` reads 1650 nM; that for `CCN1CCN(C2=C(Nc3ccc(F)cc3F)C(=O)c3ccccc3C2=O)CC1`, 2280 nM; that for `NC1=CC(=O)c2ccccc2C1=O`, 372 nM. For `CCN1CCN(C2=C(NC(=O)c3ccccc3)C(=O)c3ccccc3C2=O)CC1`, the AC40 was 1280 nM. The result for `O=C1C=C(Nc2ccccc2)C(=O)c2ccccc21` reads 175 nM and 189 nM; that for `CN1CCN(C2=C(Nc3ccc(F)cc3F)C(=O)c3ccccc3C2=O)CC1`, 1820 nM. The result for `O=C1C(Nc2ccc(F)cc2)=C(N2CCCCC2)C(=O)c2ccccc21` reads 6700 nM.

With `O=C1C(Nc2cccc(Cl)c2)=C(N2CCCC2)C(=O)c2ccccc21`, the AC40 is 10200 nM. The result for `CN1CCN(C2=C(NS(=O)(=O)c3ccc(Br)s3)C(=O)c3ccccc3C2=O)CC1` reads 1330 nM. The result for `O=C1C=C(Nc2ccc([N+](=O)[O-])c(C(F)(F)F)c2)C(=O)c2ccccc21` reads 86.8 nM. Regarding `O=C1C(Nc2ccc(Cl)cc2)=C(N2CCCC2)C(=O)c2ccccc21`, the AC40 was 9480 nM. Turning to `O=C1C(NS(=O)(=O)c2cccs2)=C(c2ccccc2)C(=O)c2ccccc21`, the AC40 was 4940 nM. The result for `COC1=C(NS(=O)(=O)c2ccccc2)C(=O)c2ccccc2C1=O` reads 1840 nM.
